In patent publication US9657351B2, “MRNA-based gene expression for personalizing patient cancer therapy with an MDM2 antagonist” (Hoffmann-La Roche Inc., priority 2013, dated 2017):

Experiments:
Assay in all cases: COMPOUND A In Vitro Assay
Type in all cases: cell-based
[1] = system: A-431; settings: Homo sapiens, Skin, epidermis, TP53 Mutant
Summary of the method: (§1)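 Human cancer cell lines of varied tumour types are screened at high throughput with the MDM2 inhibitor COMPOUND A (RG7112); IC50 defines response. Lines reaching IC50>=10 count as resistant, whereas IC50<=1 counts as sensitive.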

[2] = system: A-673; settings: Homo sapiens, A673, Muscle, TP53 Mutant
Summary of the method: as §1

[3] = system: ARH-77; settings: Homo sapiens, Lymphocyte B, peripheral blood, TP53 Mutant
Summary of the method: as §1

[4] = system: CMK-11-5; settings: Homo sapiens, Lymphocyte, TP53 Mutant
Summary of the method: as §1

[5] = system: COLO 320DM; settings: Homo sapiens, Intestine, large, colon, TP53 Mutant
Summary of the method: as §1

[6] = system: Calu-3; settings: Homo sapiens, Lung, TP53 Mutant
Summary of the method: as §1

[7] = system: Calu-6; settings: Homo sapiens, Lung, TP53 Mutant
Summary of the method: as §1

[8] = system: Capan-1; settings: Homo sapiens, Pancreas, TP53 Mutant
Summary of the method: as §1

[9] = system: DU-4475; settings: Homo sapiens, Breast, mammary gland, TP53 Wild type
Summary of the method: as §1

[10] = system: EGI-1; settings: Homo sapiens, Bile duct, TP53 Mutant
Summary of the method: as §1

[11] = system: F-36P; settings: Homo sapiens, Myeloblast, TP53 Mutant
Summary of the method: as §1

[12] = system: HCC1599; settings: Homo sapiens, Breast, mammary gland, TP53 Mutant
Summary of the method: as §1

[13] = system: HL-60; settings: Homo sapiens, Blood, TP53 Mutant
Summary of the method: as §1

[14] = system: KATO-III; settings: Homo sapiens, Stomach, TP53 Mutant
Summary of the method: as §1

[15] = system: KHM-1B; settings: Homo sapiens, Lymphocyte, TP53 Wild type
Summary of the method: as §1

[16] = system: KMS-34; settings: Homo sapiens, Lymphocyte, TP53 Mutant
Summary of the method: as §1

[17] = system: L-363; settings: Homo sapiens, Lymphocyte, peripheral blood, TP53 Mutant
Summary of the method: as §1

[18] = system: LoVo; settings: Homo sapiens, Intestine, large, colon, TP53 Wild type
Summary of the method: as §1

[19] = system: MC/CAR; settings: Homo sapiens
Summary of the method: as §1

[20] = system: MCF10DCIS•com; settings: Homo sapiens, Breast, TP53 Wild type
Summary of the method: as §1

[21] = system: MDA-MB-231; settings: Homo sapiens, Breast, mammary gland, TP53 Mutant
Summary of the method: as §1

[22] = system: MOLM-13; settings: Homo sapiens
Summary of the method: as §1

[23] = system: NCI-H1048; settings: Homo sapiens, Lung, TP53 Mutant
Summary of the method: as §1

[24] = system: NCI-H1793; settings: Homo sapiens, Lung, TP53 Mutant
Summary of the method: as §1

[25] = system: NCI-H2171; settings: Homo sapiens, Lung, TP53 Mutant
Summary of the method: as §1

[26] = system: NCI-H2228; settings: Homo sapiens, Lung, TP53 Mutant
Summary of the method: as §1

[27] = system: NCI-H358; settings: Homo sapiens, Lung, bronchi, TP53 Mutant
Summary of the method: as §1

[28] = system: NCI-H446; settings: Homo sapiens, Lung, TP53 Mutant
Summary of the method: as §1

[29] = system: NCI-H716; settings: Homo sapiens, Intestine, large, caecum, TP53 Mutant
Summary of the method: as §1

[30] = system: NOMO-1; settings: Homo sapiens, Bone marrow, TP53 Mutant
Summary of the method: as §1

[31] = system: NUGC-3; settings: Homo sapiens, Stomach, TP53 Mutant
Summary of the method: as §1

[32] = system: PC-6; settings: Homo sapiens, Lung, TP53 Wild type
Summary of the method: as §1

[33] = system: SJCRH30; settings: Homo sapiens, Muscle, TP53 Mutant
Summary of the method: as §1

[34] = system: SK-BR-3; settings: Homo sapiens, Pleura, TP53 Mutant
Summary of the method: as §1

[35] = system: SK-N-DZ; settings: Homo sapiens, Brain, TP53 Mutant
Summary of the method: as §1

[36] = system: SKM-1; settings: Homo sapiens, Lymphocyte, peripheral blood, TP53 Mutant
Summary of the method: as §1

[37] = system: SNU-16; settings: Homo sapiens, Stomach, TP53 Mutant
Summary of the method: as §1

[38] = system: SW837; settings: Homo sapiens, Intestine, large, rectum, TP53 Mutant
Summary of the method: as §1

## CCOc1cc(C(C)(C)C)ccc1C1=N[C@@](C)(c2ccc(Cl)cc2)[C@@](C)(c2ccc(Cl)cc2)N1C(=O)N1CCN(CCCS(C)(=O)=O)CC1 [COMPOUND A]
[1]
  IC50: 9.5 µM
[2]
  IC50: 18 µM
[3]
  IC50: 17 µM
[4]
  IC50: 9.6 µM
[5]
  IC50: 12 µM
[6]
  IC50: 11 µM
[7]
  IC50: 17 µM
[8]
  IC50: 20 µM
[9]
  IC50: 2.1 µM
[10]
  IC50: 9 µM
[11]
  IC50: 23 µM
[12]
  IC50: 12 µM
[13]
  IC50: 7 µM
[14]
  IC50: 9.7 µM
[15]
  IC50: 6.9 µM
[16]
  IC50: 9.8 µM
[17]
  IC50: 32 µM
[18]
  IC50: 1.3 µM
[19]; MC/CAR cells
  IC50: 0.7 µM
[19]; MC/CAR, Lymphocyte B, peripheral blood, TP53 Wild type
  IC50: 0.69 µM
[20]
  IC50: 1.4 µM
[21]
  IC50: 17 µM
[22]; MOLM-13, MOLM-13, Blood, TP53 Wild type
  IC50: 0.19 µM
[22]; MOLM-13, MOLM-13 cells
  IC50: 0.2 µM
[23]
  IC50: 9.4 µM
[24]
  IC50: 10 µM
[25]
  IC50: 11 µM
[26]
  IC50: 9.8 µM
[27]
  IC50: 8.1 µM
[28]
  IC50: 18 µM
[29]
  IC50: 13 µM
[30]
  IC50: 6.3 µM
[31]
  IC50: 9.8 µM
[32]
  IC50: 8.2 µM
[33]
  IC50: 16 µM
[34]
  IC50: 21 µM
[35]
  IC50: 5.7 µM
[36]
  IC50: 19 µM
[37]
  IC50: 10 µM
[38]
  IC50: 12 µM
